Assay results published in patent publication US9816989B2, “Immunologically active polypeptide” (Institute of Arthritis Research, LLC, priority 2013, dated 2017).

What was measured:
peripheral blood cells = assay: Cytokine production by human peripheral blood cells in culture (MSD panel); type: cell-based
Experimental: In order to examine the biological activity of IgX, cytokine production from human peripheral whole blood samples incubated with IgX was measured. Peripheral whole blood samples from three different donors (#66, 67, and 85) were obtained with appropriate informed consent and incubated with concentrations of IgX ranging from 0 to 200 ug/ml.
Protein A purified IgX was prepared from placental sample BC, brought to 0.05 M phosphate, 0.15 M NaCl buffer, pH 7.4, treated with an endotoxin affinity column (ActiClean Etox™ from Sterogene, Carlsbad, Calif.) according to the supplier's instructions, and then sent to IBT Bioservices (Gaithersburg, Md.) for human peripheral blood testing. […] All peripheral blood cells were suspended in RPMI-1640 media. Various concentrations of IgX were incubated with peripheral blood cells from donor D66 for 18 hours, and then the samples were stimulated with 1 ug/ml of PHA, 50 ng/ml of LPS, or 10 ng/ml of IFNγ (200 U/ml) for four hours. Samples of culture supernatant fluids were tested in duplicate for the presence of IL-2, IL-4, IL-6, IL-10, IL-12, and TNFα using a Meso Scale Discovery (MSD, Gaithersburg, Md.) panel.
PeptideX1 and PeptideX2 were incubated with peripheral blood cells from donor D67 as described above and tested in duplicate for IL-6 activity. […]

[1] = test system: macrophage cell line (THP-1); assay: Flow cytometry binding to macrophage/monocyte cell line with or without LPS; conditions: presence or absence of LPS
E. coli = E. coli growth (CFUs) incubated with human peripheral blood leukocytes with and without PeptideX2; type: cell-based; conditions: E. coli with WBCs and PeptideX2; 10 hours; FIG. 11
Experimental: To test this hypothesis, human peripheral white cells were incubated with E. coli in the presence and absence of PeptideX2.
Human peripheral blood leukocytes (WBCs) were obtained from healthy donors with informed consent. Three test groups were inoculated with E. coli and incubated for 10 hours. The three groups were E. coli with serum alone, E. coli with WBCs, and E. coli with WBCs with PeptideX2. Samples were taken at 0, 2, 4, 6 and 10 hours and plated for colony forming units (CFUs). […] In a separate but similar experiment, nine test groups (E. coli with serum alone, E. coli with WBCs, and E. coli with WBCs with PeptideX2 at each of seven indicated concentrations, see FIG. 12) were incubated over a time course of three hours, with quantification of bacterial CFU performed at times 0, 1.5 and 3 hours (FIG. 12).

KSIAYLQMNSLK (Peptide fragment) [PeptideX2]
IL-6 production compared to peptideX1 (peripheral blood cells; cells from donor #67, FIG. 7): significantly greater | IL-6 production (peripheral blood cells; cells from donor #85, PeptideX2 0-200 ug/ml, FIG. 9): enhanced production | binding to monocyte cell line [1]: without any binding | E. coli CFUs (E. coli): rapid rise in CFUs
